Experimental data reported in publication PMC9212912 (Structure (London, England : 1993), 2022).

Tests used:
[1] = tested on: Calu-3 cells; settings: 0.01 µM
[2] = tested on: native human MYST-family HAT complex purified via BRPF2 (HBO1); test: In vitro acetyltransferase assay, 3H-acetyl incorporation; type: biochemical; settings: 0.5 μg peptide, 3H Ac-CoA, 30 minutes at 30 °C, liquid scintillation
[3] = tested on: native human MYST-family HAT complexes purified via MEAF6 (MYST); test: as above; type: biochemical; settings: 0.5 μg peptide, 3H Ac-CoA, 30 minutes at 30 °C, liquid scintillation
[4] = tested on: human HAT complex NuA4/TIP60; test: In vitro acetyltransferase assay; type: biochemical
[5] = tested on: human HAT complex SAGA; test: In vitro acetyltransferase assay; type: biochemical
[6] = biological target: BRD4 ET domain (Homo sapiens, UniProt O60885); type: binding; settings: 20 mM Tris pH 7.0, 100 mM NaCl, 3 mM DTT, 10% D2O

Cc1sc2c(c1C)C(c1ccc(Cl)cc1)=N[C@@H](CC(=O)Nc1ccc(O)cc1)c1nnc(C)n1-2 [OTX015]
Calu-3 cell viability [1]: 98%

SARS-CoV-2 E^48−72: peptide, aa 48–72 of SARS-CoV-2 E, acetyltransferase substrate (NVSLVKPSFYVYSRVKNLNSSRVPD; UniProt P0DTC4 48-72, looked up, fragment)
Acetylation of the peptide by HBO1 (BRPF2) complex [2]: able to some extent acetylate | Acetylation of the peptide by MYST (MEAF6) complexes [3]: able to some extent acetylate | Acetylation of the peptide by NuA4/TIP60 [4]: undetectable | Acetylation of the peptide by SAGA [5]: undetectable

SARS-CoV-2 E^53−72: longer non-acetylated peptide, aa 53–72 of SARS-CoV-2 E (KPSFYVYSRVKNLNSSRVPD)
Chemical shift perturbations in BRD4 ET upon peptide addition [6]: did not alter the pattern of CSPs

SARS-CoV-2 E^57−69: peptide, aa 57–69 of SARS-CoV-2 E (YVYSRVKNLNSSR)
Chemical shift perturbations in BRD4 ET upon peptide addition [6]: small CSPs
